{
  "source": "patent US9920295B2",
  "about": "“Bioreactor for isolation of rare cells and methods of use” (The Trustees of the University of Pennsylvania, priority 2012, dated 2018)",
  "key": {"[1]": {"tested_on": "BM CD34+-derived cells (CD41+ MK)", "experiment": "Ploidy analysis of CD34+-derived cells treated with contractility inhibitors (flow cytometry)", "type": "cell-based, human", "conditions": "for maximal polyploid cell number: scaled to 10,000 initial cell input", "description": "Fresh purified bone marrow (BM)-derived humanCD34^+ cells were obtained from either the Penn Xenograft Core Facility or AllCells. Cells from at least 10 different donors were used in this study. Purity of the samples (>98%) was confirmed by flow cytometry with monoclonal antibody against human CD34 conjugated to phycoerythrin (PE). All experiments were performed in hematopoietic stem cell (HSC) expansion media (StemLine-II; Sigma) supplemented with 1× antibiotics, and the following human recombinant cytokines SCF (100 ng/mL) and Tpo (100 ng/mL). In some occasions, the media was also supplemented by G-CSF (100 ng/mL). All cytokines were purchased from R&D Systems. After cells were cultured for 4 days, they were treated with different doses of cellular contractility inhibitors, including (±)-blebbistatin (EMDBiosciences), reversine, ML-7, and Y-27632 (Sigma) for indicated durations of up to 3 days. Unfortunately, longer exposure to drug proves toxic even to polyploidy cells under the present culture conditions. Cells were then resuspended in PBS/2% FBS medium and subjected to ploidy analysis: cells were stained with CD41-FITC (BD Biosciences) at room temperature for 30 min, followed by Hoechst 33342 at 37° C. for 30 min. Then cells were stained with Annexin-V-PE (BD Biosciences) in the Annexin-V staining medium, followed by addition of 7-AAD. Stained cells were subjected to flow cytometric analysis (LSR-II; BD Biosciences): only viable cells (7-AAD^− and Hoechst 33342^+) were analyzed for ploidy. Cells with the DNA content of 8 N or higher were considered polyploid. To quantify absolute number of polyploid cells, viable cell number was counted before flow cytometry by Trypan blue exclusion, and this number was multiplied by percentages of each DNA compartment and subpopulations. Each multiplied number was then normalized by initial cell input number before drug treatment in culture."}, "αIIbβ3": {"target": "T1, αIIbβ3 (Homo sapiens, UniProt P05106+P08514)", "T1 construct": "endogenous in cells; host or cells: platelet-like fragments from megakaryocytes cultured from human bone-marrow CD34+ cells", "T1 sequence (P08514 32-887 limits assumed)": "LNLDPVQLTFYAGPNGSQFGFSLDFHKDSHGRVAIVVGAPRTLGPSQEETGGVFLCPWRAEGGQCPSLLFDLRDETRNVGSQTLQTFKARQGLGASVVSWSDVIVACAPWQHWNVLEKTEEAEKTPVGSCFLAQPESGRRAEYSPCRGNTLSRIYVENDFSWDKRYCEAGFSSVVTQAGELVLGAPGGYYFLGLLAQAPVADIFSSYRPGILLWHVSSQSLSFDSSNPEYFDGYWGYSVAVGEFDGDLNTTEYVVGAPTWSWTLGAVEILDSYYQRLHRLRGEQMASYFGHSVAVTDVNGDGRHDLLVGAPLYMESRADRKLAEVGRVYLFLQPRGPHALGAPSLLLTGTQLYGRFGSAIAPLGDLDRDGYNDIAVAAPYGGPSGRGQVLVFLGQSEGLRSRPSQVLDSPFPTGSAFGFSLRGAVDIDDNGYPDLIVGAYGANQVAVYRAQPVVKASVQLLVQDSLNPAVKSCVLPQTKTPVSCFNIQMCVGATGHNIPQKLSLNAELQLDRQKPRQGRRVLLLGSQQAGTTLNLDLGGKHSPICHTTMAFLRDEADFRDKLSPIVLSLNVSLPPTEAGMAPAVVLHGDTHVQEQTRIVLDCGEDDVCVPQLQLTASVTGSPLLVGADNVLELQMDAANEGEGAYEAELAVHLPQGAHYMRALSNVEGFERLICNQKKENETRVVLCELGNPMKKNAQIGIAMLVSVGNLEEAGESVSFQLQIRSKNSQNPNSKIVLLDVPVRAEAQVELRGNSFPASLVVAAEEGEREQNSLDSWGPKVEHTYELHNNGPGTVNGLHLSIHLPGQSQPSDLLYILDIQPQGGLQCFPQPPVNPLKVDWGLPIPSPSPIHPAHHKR", "T1 sequence (P08514 891-1039 partner limits assumed)": "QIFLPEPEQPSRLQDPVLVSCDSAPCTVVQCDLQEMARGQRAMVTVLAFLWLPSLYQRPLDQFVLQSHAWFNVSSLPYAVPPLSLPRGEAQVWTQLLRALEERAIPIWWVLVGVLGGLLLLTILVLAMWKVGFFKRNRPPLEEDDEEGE", "T1 sequence (P05106 27-788)": "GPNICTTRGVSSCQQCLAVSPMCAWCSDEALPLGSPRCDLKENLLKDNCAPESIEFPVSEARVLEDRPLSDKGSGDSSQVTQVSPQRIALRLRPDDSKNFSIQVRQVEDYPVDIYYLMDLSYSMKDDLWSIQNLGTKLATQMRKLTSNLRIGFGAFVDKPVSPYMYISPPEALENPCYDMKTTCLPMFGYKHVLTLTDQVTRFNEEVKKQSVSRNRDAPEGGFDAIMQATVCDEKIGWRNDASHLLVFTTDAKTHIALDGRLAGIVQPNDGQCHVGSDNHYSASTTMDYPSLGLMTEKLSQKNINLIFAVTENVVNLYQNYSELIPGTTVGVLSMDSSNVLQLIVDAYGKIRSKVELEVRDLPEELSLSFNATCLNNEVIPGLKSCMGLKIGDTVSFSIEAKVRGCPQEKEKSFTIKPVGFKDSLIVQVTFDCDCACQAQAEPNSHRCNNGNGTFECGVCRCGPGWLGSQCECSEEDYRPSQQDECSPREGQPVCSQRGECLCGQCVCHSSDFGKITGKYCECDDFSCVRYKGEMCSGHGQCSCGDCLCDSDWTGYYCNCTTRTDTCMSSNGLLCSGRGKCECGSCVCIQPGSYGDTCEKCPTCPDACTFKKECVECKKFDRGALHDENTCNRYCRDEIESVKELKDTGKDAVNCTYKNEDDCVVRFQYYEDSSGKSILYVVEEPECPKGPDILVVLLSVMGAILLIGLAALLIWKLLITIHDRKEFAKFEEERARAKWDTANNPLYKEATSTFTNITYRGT", "experiment": "Platelet activation assay, PAC-1 binding", "type": "cell-based", "conditions": "thrombin 1 U/mL", "description": "For platelet-activation assays, platelet-sided fraction isolated from either MK culture or NSG blood was resuspended in Tyrode's buffer supplemented with Mg^2+ and Ca^2+, and incubated with indicated agonists for 15 min at 37° C., followed by staining with FITC-conjugated anti-human P-selectin or PAC-1 antibody (BD Bioscience), APC-conjugated anti-human CD41, and in the case of xenograft samples, PE-conjugated anti-mouse CD41 for 15 min at room temperature, followed by fixation with 1.5% paraformaldehyde. Antibody-stained samples were then analyzed by flow cytometry. Platelet number was evaluated by mixing each sample with a defined number (˜10,000 beads per sample) of APC-conjugated beads (BD Bioscience). The number of platelets per sample was evaluated by: number of CD41^+ events/number of APC-bead events multiplied by total known number of APC-bead added per sample."}, "CD34+-derived cells [2]": {"tested_on": "CD34+-derived cells", "experiment": "Apoptosis by cleaved caspase-3 intracellular flow cytometry and Annexin-V", "type": "cell-based, human", "conditions": "cleaved caspase-3 and Annexin-V+", "description": "Cells were fixed with 4% paraformaldehyde in PBS for 10 min, washed with PBS and resuspended in 0.1% saponin in HBSS (staining medium). The samples were then stained with antibodies against cytoplasmic antigens, including NMM-IIA (Sigma), NMM-IIB, phospho-NMM-IIA and caspase-3 (all from Cell Signaling Technology) for 30 min at room temperature. In some cases, cells were concurrently stained with PE anti-CD34 or anti-human CD38 for subpopulation analysis. Cells were then washed and stained with anti-rabbit or mouse secondary antibodies conjugated with Alexa 647 (Invitrogen) for 30 min, followed by analysis on FACSCalibur."}, "CD34+-derived cells [3]": {"tested_on": "CD34+-derived cells", "experiment": "DNA microarray transcriptional profiling", "type": "cell-based, human", "description": "Total RNA was extracted from cells using trizol and isolated by RNeasy (Qiagen) according to manufacturer's protocol. Total RNA was amplified and converted to cDNA using WT-Ovation Pico kit (NuGen) and converted to ST-cDNA, fragmented and biotinfunctionalized using WT-Ovation Exon Mudule (NuGen). Hybridization cocktails were prepared at 45.4, 15.1 and 7.6 ng/μl ST-cDNA and mixed with Eukaryotic Hybridization Controls (GeneChip) at proportional concentrations. Each sample was interrogated by sequential hybridization, rinse and scan cycles on a single Human Gene 1.0 ST DNA microarray (Affymetrix), from low to high concentration, and followed by two rinse-scan cycles in which no sample was added. In each experiment the scanned intensities that were obtained from all samples, five scans per array, were mutually RMA-summarized to transcription clusters gene levels. Log-base-2 fold changes were calculated for each scan separately relative to the mean Bleb-treated and non-treated CD34^+ and CD34^− intensities, gene by gene, and the average and standard deviation values (SD) were calculated across scans. Heat maps of selected genes summarize data from technical and biological replica. Average gene-expression fold changes±STD of HSC, MPP and CPP samples are shown in white. Log-base-2 fold changes of Bleb-treated and non-treated CD34^+ and CD34^− were averaged from two biologically independent experiments and are shown±SD. The particular fold-changes are color coded on a logarithmic scale that is defined per each heat map. Color-coded gene symbols represent the absolute gene expression levels of the biologically-replicated averages of CD34^+ non-treated intensities. Gene expression levels are coded <=5 (green) to >=10 (red) on a log-base-2 scale. Samples and genes were clustered by Pearson Correlation (MeV). Dendograms represent the correlative proximity of log-base-2 gene expression fold changes. Mean gene expression levels were calculated by averaging across five array scans. Log-base-2 gene expression fold changes were calculated relative to the mean Bleb-treated and non-treated CD34^+ and CD34^− intensities, gene by gene."}},
  "data": [
    {"smiles": "Cc1ccc2c(c1)C(=O)C1(O)CCN(c3ccccc3)C1=N2", "note": "(racemic) [blebbistatin, (±)-blebbistatin]", "values": [
      {"measurement": "drug dose found to be toxic", "setting": "[1]", "value": "~100", "unit": "µM"},
      {"measurement": "enrichment of mature polyploid MKs", "setting": "[1]", "value": "~10", "unit": "folds"},
      {"measurement": "doubling time of polyploid cell generation", "setting": "[1]; 20 μM", "value": 18.2, "unit": "h"},
      {"measurement": "Ki", "setting": "[1]; MK polyploidization / progenitor depletion in cells, read-out: inhibition constant Ki", "value": "~7.6", "unit": "µM"},
      {"measurement": "maximal polyploid cell number", "setting": "[1]; SCF+Tpo CD41+", "value": 278},
      {"measurement": "maximal polyploid cell number", "setting": "[1]; SCF+Tpo CD41−", "value": 1},
      {"measurement": "maximal polyploid cell number", "setting": "[1]; SCF+Tpo+G-CSF CD41+", "value": 141},
      {"measurement": "maximal polyploid cell number", "setting": "[1]; SCF+Tpo+G-CSF CD41−", "value": 352},
      {"measurement": "EC50", "setting": "[1]; dose-response, n≥3 donors, read-out: MK polyploid cell number EC50", "value": 7.6, "unit": "µM"},
      {"measurement": "IC50", "setting": "[1]; treatment for 3 d, with or without G-CSF, read-out: CD41+ MK and non-MK polyploid cell number IC50", "value": 7.6, "unit": "µM"},
      {"measurement": "PAC-1 binding of platelets derived from drug-exposed MKs", "setting": "αIIbβ3", "value": "normal PAC-1 binding"},
      {"measurement": "increase in apoptosis", "setting": "CD34+-derived cells [2]", "value": "about 2 fold"},
      {"measurement": "NMM-IIA mRNA lower in drug-treated CD34+ cells", "setting": "CD34+-derived cells [3]", "value": "~30", "unit": "%"},
      {"measurement": "reduction of cyclin D1 and D3 (CCND1 and 3) expression", "setting": "CD34+-derived cells [3]", "value": 2, "unit": "fold"},
      {"measurement": "SCF receptor (KIT) expression vs untreated CD34+ cells", "setting": "CD34+-derived cells [3]; treated CD34+ cells", "value": 1.8, "unit": "fold"},
      {"measurement": "upregulation of CD133 (PROM1) and CD34 above pooled average", "setting": "CD34+-derived cells [3]; treated CD34+ cells in culture", "value": "more than 2 fold"}
    ]}
  ]
}
